Measurements taken from ChEMBL document CHEMBL1201862, “PubChem BioAssay data set” (2004).
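All cell lines were grown in 96-well plates and treated with compound for 48 hours. GI50 is the concentration that inhibits growth by half.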 Activity calls are given as the source filed them. Cut-off read from the data, not from the text of the source: active = GI50 up to about 1.1 µM and inactive = higher.

Assays:
Assay in all cases: NCI-60 cell line screen, 48 h
786-0 = test system: 786-0
A498 = test system: A498
A549 = test system: A549
ACHN = test system: ACHN
CAKI-1 = test system: CAKI-1
CCRF-CEM = test system: CCRF-CEM
COLO 205 = test system: COLO 205
DLD-1 = test system: DLD-1
DMS-114 = test system: DMS-114
DMS-273 = test system: DMS-273
EKVX = test system: EKVX
HCC 2998 = test system: HCC 2998
HCT-15 = test system: HCT-15
HL-60 = test system: HL-60
HOP-18 = test system: HOP-18
HOP-62 = test system: HOP-62
HOP-92 = test system: HOP-92
IGROV-1 = test system: IGROV-1
K562 = test system: K562
KM-20L2 = test system: KM-20L2
KM12 = test system: KM12
LOX IMVI = test system: LOX IMVI
M19-MEL = test system: M19-MEL
MOLT-4 = test system: MOLT-4
Malme-3M = test system: Malme-3M
NCI-H23 = test system: NCI-H23
NCI-H460 = test system: NCI-H460
NCI-H522 = test system: NCI-H522
OVCAR-3 = test system: OVCAR-3
OVCAR-5 = test system: OVCAR-5
OVCAR-8 = test system: OVCAR-8
RPMI-8226 = test system: RPMI-8226
RXF 393 = test system: RXF 393
RXF 631 = test system: RXF 631
SF-268 = test system: SF-268
SF-295 = test system: SF-295
SF-539 = test system: SF-539
SK-MEL-28 = test system: SK-MEL-28
SK-MEL-2 = test system: SK-MEL-2
SK-MEL-5 = test system: SK-MEL-5
SK-OV-3 = test system: SK-OV-3
SN12C = test system: SN12C
SNB-19 = test system: SNB-19
SNB-75 = test system: SNB-75
SNB-78 = test system: SNB-78
SW-620 = test system: SW-620
TK-10 = test system: TK-10
U-251 = test system: U-251
UACC-62 = test system: UACC-62
UO-31 = test system: UO-31
HCT-116 = test system: HCT-116
HT-29 = test system: HT-29
LXFL 529 = test system: LXFL 529
M14 = test system: M14
NCI-H226 = test system: NCI-H226
OVCAR-4 = test system: OVCAR-4
SR = test system: SR
UACC-257 = test system: UACC-257

In the case of `COc1ccc(/C=C/C(=O)c2sc(Nc3ccc([N+](=O)[O-])cc3)nc2C)cc1`, the GI50 (786-0) is reported as 48.8 µM (inactive), the GI50 (A498) is reported as 83.8 µM (inactive) and the GI50 (A549) is reported as 33 µM (inactive). The GI50 (ACHN) was 38.6 µM (inactive), the GI50 (CAKI-1) was 40.2 µM (inactive) and the GI50 (CCRF-CEM) was 25.6 µM (inactive). For the same compound, the GI50 (COLO 205) was 45.7 µM (inactive), the GI50 (DLD-1) was 29.1 µM (inactive) and the GI50 (DMS-114) was 31.3 µM (inactive). The GI50 (DMS-273) was 41.1 µM (inactive), the GI50 (EKVX) was 43.9 µM (inactive) and the GI50 (HCC 2998) was 27.5 µM (inactive). For the same compound, the GI50 (HCT-15) was 34.4 µM, the GI50 (HL-60) was 21.2 µM (inactive) and the GI50 (HOP-18) was 78.2 µM (inactive). The GI50 (HOP-62) was 64.1 µM (inactive), the GI50 (HOP-92) was 20.8 µM (inactive) and the GI50 (IGROV-1) was 66.5 µM (inactive). The GI50 (K562) was 22.1 µM (inactive), the GI50 (KM-20L2) was 48.6 µM (inactive) and the GI50 (KM12) was 27.4 µM (inactive). For the same compound, the GI50 (LOX IMVI) was 31.6 µM (inactive), the GI50 (M19-MEL) was 53.1 µM (inactive) and the GI50 (MOLT-4) was 17.7 µM (inactive). For the same compound, the GI50 (Malme-3M) was 47 µM (inactive), the GI50 (NCI-H23) was 26.5 µM (inactive) and the GI50 (NCI-H460) was 44.6 µM (inactive). For the same compound, the GI50 (NCI-H522) was 18.2 µM (inactive), the GI50 (OVCAR-3) was 26 µM (inactive) and the GI50 (OVCAR-5) was > 100 µM (inactive). The GI50 (OVCAR-8) was 39.1 µM (inactive), the GI50 (RPMI-8226) was 19.3 µM (inactive) and the GI50 (RXF 393) was 23.1 µM (inactive). For the same compound, the GI50 (RXF 631) was 34.2 µM (inactive), the GI50 (SF-268) was 34.8 µM (inactive) and the GI50 (SF-295) was 23.3 µM (inactive). For the same compound, the GI50 (SF-539) was 59.7 µM (inactive), the GI50 (SK-MEL-28) was 40.2 µM (inactive) and the GI50 (SK-MEL-2) was 17.5 µM (inactive). The GI50 (SK-MEL-5) was 18.2 µM (inactive), the GI50 (SK-OV-3) was > 100 µM (inactive) and the GI50 (SN12C) was 50.2 µM (inactive). The GI50 (SNB-19) was 35.3 µM (inactive), the GI50 (SNB-75) was 43.5 µM (inactive) and the GI50 (SNB-78) was 46.2 µM (inactive). The GI50 (SW-620) was 42.3 µM (inactive), the GI50 (TK-10) was 45.2 µM (inactive) and the GI50 (U-251) was 65.2 µM (inactive). The GI50 (UACC-62) was 29.9 µM (inactive) and the GI50 (UO-31) was 25.4 µM (inactive).

For `CSc1nc(NC2OC(COC(C)=O)C(OC(C)=O)C(OC(C)=O)C2OC(C)=O)c2c(n1)OCC2=O` (centres undefined), the GI50 (786-0) was > 100 µM (inactive), the GI50 (A498) was > 100 µM (inactive) and the GI50 (A549) was > 100 µM (inactive). For the same compound, the GI50 (ACHN) was > 100 µM (inactive), the GI50 (CAKI-1) was > 100 µM (inactive) and the GI50 (CCRF-CEM) was > 100 µM (inactive). The GI50 (COLO 205) was > 100 µM (inactive), the GI50 (DLD-1) was > 100 µM (inactive) and the GI50 (DMS-114) was > 100 µM (inactive). For the same compound, the GI50 (HCT-116) was > 100 µM (inactive), the GI50 (HCT-15) was greater than 100 µM and the GI50 (HL-60) was > 100 µM (inactive). For the same compound, the GI50 (HOP-18) was > 100 µM (inactive), the GI50 (HOP-62) was > 100 µM (inactive) and the GI50 (HOP-92) was > 100 µM (inactive). For the same compound, the GI50 (HT-29) was > 100 µM (inactive), the GI50 (IGROV-1) was > 100 µM (inactive) and the GI50 (K562) was > 100 µM (inactive). The GI50 (KM-20L2) was > 100 µM (inactive), the GI50 (KM12) was > 100 µM (inactive) and the GI50 (LOX IMVI) was > 100 µM (inactive). The GI50 (LXFL 529) was > 100 µM (inactive), the GI50 (M14) was > 100 µM (inactive) and the GI50 (M19-MEL) was > 100 µM (inactive). For the same compound, the GI50 (MOLT-4) was > 100 µM (inactive), the GI50 (Malme-3M) was > 100 µM (inactive) and the GI50 (NCI-H226) was > 100 µM (inactive). For the same compound, the GI50 (NCI-H23) was > 100 µM (inactive), the GI50 (NCI-H460) was > 100 µM (inactive) and the GI50 (NCI-H522) was > 100 µM (inactive). The GI50 (OVCAR-3) was > 100 µM (inactive), the GI50 (OVCAR-4) was > 100 µM (inactive) and the GI50 (OVCAR-5) was > 100 µM (inactive). For the same compound, the GI50 (OVCAR-8) was > 100 µM (inactive), the GI50 (RPMI-8226) was > 100 µM (inactive) and the GI50 (RXF 631) was > 100 µM (inactive). The GI50 (SF-268) was > 100 µM (inactive), the GI50 (SF-295) was > 100 µM (inactive) and the GI50 (SF-539) was > 100 µM (inactive). For the same compound, the GI50 (SK-MEL-28) was > 100 µM (inactive), the GI50 (SK-MEL-2) was > 100 µM (inactive) and the GI50 (SK-MEL-5) was > 100 µM (inactive). For the same compound, the GI50 (SK-OV-3) was > 100 µM (inactive), the GI50 (SN12C) was > 100 µM (inactive) and the GI50 (SNB-19) was > 100 µM (inactive). The GI50 (SNB-75) was > 100 µM (inactive), the GI50 (SNB-78) was > 100 µM (inactive) and the GI50 (SR) was > 100 µM (inactive). For the same compound, the GI50 (SW-620) was > 100 µM (inactive), the GI50 (TK-10) was > 100 µM (inactive) and the GI50 (U-251) was > 100 µM (inactive). For the same compound, the GI50 (UACC-257) was > 100 µM (inactive), the GI50 (UACC-62) was > 100 µM (inactive) and the GI50 (UO-31) was > 100 µM (inactive).
